Reference: ChEMBL document CHEMBL1201862, “PubChem BioAssay data set” (2004)
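Results reflect a 48-hour exposure of cells in 96-well plates to compound at five concentrations. Abbreviation: GI50, concentration required for 50% inhibition of growth.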 The source made the active and inactive calls. Cut-off read from the data, not from the text of the source: active = GI50 up to about 1.1 µM and inactive = higher.

Experiments:
Experiment in all cases: NCI tumour cell line growth inhibition, 48 h
HCT-15 = system: HCT-15
SF-539 = system: SF-539
COLO 205 = system: COLO 205
SF-268 = system: SF-268
CCRF-CEM = system: CCRF-CEM
RXF 393 = system: RXF 393
OVCAR-5 = system: OVCAR-5
T47D = system: T47D
SNB-75 = system: SNB-75
ACHN = system: ACHN
MDA-MB-231 = system: MDA-MB-231
OVCAR-8 = system: OVCAR-8
U-251 = system: U-251
SK-MEL-5 = system: SK-MEL-5
HT-29 = system: HT-29
UO-31 = system: UO-31
A549 = system: A549
UACC-62 = system: UACC-62
Hs-578T = system: Hs-578T

Row | SMILES | GI50 (HCT-15) | GI50 (SF-539) | GI50 (COLO 205) | GI50 (SF-268) | GI50 (CCRF-CEM) | GI50 (RXF 393) | GI50 (OVCAR-5) | GI50 (T47D) | GI50 (SNB-75) | GI50 (ACHN) | GI50 (MDA-MB-231) | GI50 (OVCAR-8) | GI50 (U-251) | GI50 (SK-MEL-5) | GI50 (HT-29) | GI50 (UO-31) | GI50 (A549) | GI50 (UACC-62) | GI50 (Hs-578T)
1 | CCN(CC)CCNc1nc2ccc([N+](=O)[O-])cc2[n+]([O-])n1 | 11.5 µM | 23.3 µM (inactive) | 2.84 µM (inactive) | 41 µM (inactive) | 27 µM (inactive) | 46.7 µM (inactive) | 16 µM (inactive) | 20.1 µM (inactive) | 29.3 µM (inactive) | 36.8 µM (inactive) | 15.5 µM (inactive) | 13.5 µM (inactive) | 21.9 µM (inactive) | 10.5 µM (inactive) | 7.91 µM (inactive) | 37.6 µM (inactive) | 21.1 µM (inactive) | 16.6 µM (inactive) | 
2 | CC(=O)OCC(OC(C)=O)C(OC(C)=O)C(OC(C)=O)C(C=NN(C(C)=O)S(=O)(=O)c1ccc(/C=C2\NC(=O)N(C)C2=O)cc1)OC(C)=O (configuration not stated) | 25.4 µM |  | 26.2 µM (inactive) | 30.1 µM (inactive) | 13 µM (inactive) | 20.5 µM (inactive) | 83.2 µM (inactive) | 27.1 µM (inactive) | 33.7 µM (inactive) | 34.5 µM (inactive) | 36.1 µM (inactive) | 25.6 µM (inactive) | 32.1 µM (inactive) | 30.1 µM (inactive) | 34.9 µM (inactive) | 57.5 µM (inactive) | 56 µM (inactive) | 13.6 µM (inactive) | 32.9 µM (inactive)
3 | N#Cc1cnn2cc[nH]c12 | > 100 µM | 10 µM (inactive) | > 100 µM (inactive) | > 100 µM (inactive) | > 100 µM (inactive) |  | > 100 µM (inactive) | > 100 µM (inactive) | > 100 µM (inactive) | > 100 µM (inactive) | > 100 µM (inactive) | > 100 µM (inactive) | > 100 µM (inactive) | > 100 µM (inactive) | > 100 µM (inactive) | > 100 µM (inactive) | > 100 µM (inactive) | > 100 µM (inactive) | > 100 µM (inactive)
4 | O=c1c2ccccc2nc(N/N=C/c2ccc([N+](=O)[O-])cc2)n1-c1ccccc1 | > 100 µM |  | > 100 µM (inactive) | 12.1 µM (inactive) | > 100 µM (inactive) | 7.87 µM (inactive) | > 100 µM (inactive) | 9.59 µM (inactive) | 7.93 µM (inactive) | 13.3 µM (inactive) | 11.7 µM (inactive) | 37.8 µM (inactive) | 15.1 µM (inactive) | 64.3 µM (inactive) | > 100 µM (inactive) | > 100 µM (inactive) | 15.6 µM (inactive) | 27 µM (inactive) | 6.35 µM (inactive)
5 | O=c1[nH]c(=O)n(C2CC(O)C(CO)O2)cc1/N=N/NCCc1ccccc1 (configuration not stated) | > 100 µM |  | > 100 µM (inactive) | > 100 µM (inactive) | > 100 µM (inactive) | > 100 µM (inactive) | > 100 µM (inactive) | > 100 µM (inactive) | > 100 µM (inactive) | > 100 µM (inactive) | > 100 µM (inactive) | > 100 µM (inactive) | > 100 µM (inactive) | > 100 µM (inactive) | > 100 µM (inactive) | > 100 µM (inactive) | > 100 µM (inactive) | > 100 µM (inactive) | > 100 µM (inactive)
6 | COc1ccc(C2=Nn3c(nnc3-c3ccccc3)S/C2=C\c2ccc(-c3ccc([N+](=O)[O-])cc3)o2)cc1 | 16.5 µM |  | 25.8 µM (inactive) | 28.8 µM (inactive) | 5.7 µM (inactive) |  | 47.6 µM (inactive) | 18.6 µM (inactive) |  | 64.1 µM (inactive) |  | 30.5 µM (inactive) | 22.6 µM (inactive) | 27.6 µM (inactive) | 26.4 µM (inactive) | 36.4 µM (inactive) | 36.7 µM (inactive) | 48.3 µM (inactive) | 33.7 µM (inactive)
7 | CC(=O)/C(=C/n1ccc(=O)[nH]c1=S)C(=O)Nc1ccccc1C | > 100 µM | > 100 µM (inactive) | > 100 µM (inactive) | > 100 µM (inactive) |  | > 100 µM (inactive) | > 100 µM (inactive) | > 100 µM (inactive) | > 100 µM (inactive) | > 100 µM (inactive) | > 100 µM (inactive) | > 100 µM (inactive) | > 100 µM (inactive) | > 100 µM (inactive) | > 100 µM (inactive) | > 100 µM (inactive) | > 100 µM (inactive) | > 100 µM (inactive) | 
8 | O=C(Nc1ccccc1F)c1cc2ccc(O)cc2o/c1=N\c1cccc(F)c1 | 10.2 µM | 17.5 µM (inactive) | 29.7 µM (inactive) | 19.2 µM (inactive) | 3.31 µM (inactive) |  | 23.7 µM (inactive) | 4.25 µM (inactive) |  | 9.89 µM (inactive) |  | 9.48 µM (inactive) | 12.4 µM (inactive) | 5.22 µM (inactive) | 37.5 µM (inactive) | 13 µM (inactive) | 7.98 µM (inactive) | 11.8 µM (inactive) | 25.6 µM (inactive)
9 | Cc1ccnc(NC(=S)Nc2cccc(Cl)c2)c1 | > 100 µM | > 100 µM (inactive) | > 100 µM (inactive) | > 100 µM (inactive) | > 100 µM (inactive) | > 100 µM (inactive) | > 100 µM (inactive) | > 100 µM (inactive) | 23.1 µM (inactive) |  |  | > 100 µM (inactive) | > 100 µM (inactive) | > 100 µM (inactive) | > 100 µM (inactive) | > 100 µM (inactive) | > 100 µM (inactive) | > 100 µM (inactive) | 74.1 µM (inactive)
10 | Cc1c/c(=N/NC(=O)c2ccncc2)n2nc(N)sc2n1 | > 100 µM | > 100 µM (inactive) | > 100 µM (inactive) |  | > 100 µM (inactive) | > 100 µM (inactive) | > 100 µM (inactive) |  | 40.2 µM (inactive) | > 100 µM (inactive) | > 100 µM (inactive) | > 100 µM (inactive) | > 100 µM (inactive) | > 100 µM (inactive) | > 100 µM (inactive) | > 100 µM (inactive) | > 100 µM (inactive) | > 100 µM (inactive) | 
11 | COc1ccccc1/C=C/c1ccnc2ccccc12 | 12.3 µM | 14.6 µM (inactive) | 17.1 µM (inactive) | 14.2 µM (inactive) | 14.2 µM (inactive) |  | 17.3 µM (inactive) |  | 3.37 µM (inactive) | 16.4 µM (inactive) | 16.1 µM (inactive) | 15.4 µM (inactive) | 11.9 µM (inactive) | 13.5 µM (inactive) | 12.8 µM (inactive) |  | 14.5 µM (inactive) | 11.7 µM (inactive) | 14.7 µM (inactive)
12 | CN(C)c1ccc(C2C(Cl)C(=O)N2NC(=O)c2c(Cl)c(Cl)c(Cl)c(Cl)c2-c2nc3ccccc3[nH]2)cc1 (configuration not stated) | 12.9 µM | 7.89 µM (inactive) | 7.67 µM (inactive) | 11.5 µM (inactive) | 3.36 µM (inactive) | 2.48 µM (inactive) | 31.3 µM (inactive) | 6.62 µM (inactive) | 15.6 µM (inactive) | 15.8 µM (inactive) |  | 2.4 µM (inactive) |  | 16.1 µM (inactive) | 22.3 µM (inactive) | 19.4 µM (inactive) | 31.6 µM (inactive) | 12.7 µM (inactive) | 33.3 µM (inactive)
13 | COC(=O)C1CCC(=S)N1C(C)=O (configuration not stated) | > 100 µM |  | > 100 µM (inactive) | > 100 µM (inactive) |  | > 100 µM (inactive) | > 100 µM (inactive) |  | > 100 µM (inactive) | > 100 µM (inactive) | > 100 µM (inactive) | > 100 µM (inactive) | > 100 µM (inactive) | > 100 µM (inactive) | > 100 µM (inactive) | > 100 µM (inactive) | > 100 µM (inactive) | > 100 µM (inactive) | > 100 µM (inactive)
14 | CC(CS(=O)(=O)Cc1ccccc1)C(N)=O (configuration not stated) | > 100 µM | > 100 µM (inactive) | > 100 µM (inactive) | > 100 µM (inactive) |  |  | > 100 µM (inactive) | > 100 µM (inactive) |  | > 100 µM (inactive) | > 100 µM (inactive) | > 100 µM (inactive) | > 100 µM (inactive) | > 100 µM (inactive) | > 100 µM (inactive) | > 100 µM (inactive) | > 100 µM (inactive) | > 100 µM (inactive) | > 100 µM (inactive)
15 | CNC1=Nc2ccccc2C(=S)N2CSC[C@@H]12 | > 100 µM | > 100 µM (inactive) | > 100 µM (inactive) | > 100 µM (inactive) |  | > 100 µM (inactive) | > 100 µM (inactive) | > 100 µM (inactive) |  | > 100 µM (inactive) | > 100 µM (inactive) | > 100 µM (inactive) | > 100 µM (inactive) | > 100 µM (inactive) | > 100 µM (inactive) | > 100 µM (inactive) | > 100 µM (inactive) | > 100 µM (inactive) | 
16 | O=c1c2cc(-c3ccccc3)cnc2sn1-c1ccc(Br)cc1 | 88.9 µM | > 100 µM (inactive) | > 100 µM (inactive) | > 100 µM (inactive) | 95.5 µM (inactive) | > 100 µM (inactive) | > 100 µM (inactive) | > 100 µM (inactive) | > 100 µM (inactive) | > 100 µM (inactive) | > 100 µM (inactive) | > 100 µM (inactive) | > 100 µM (inactive) |  | > 100 µM (inactive) | > 100 µM (inactive) | > 100 µM (inactive) | > 100 µM (inactive) | 
17 | CCCCN(CCCC)C1(c2cc3ccccc3s2)CCCCC1.[O-][Cl+3]([O-])([O-])O | 15.5 µM | 19.1 µM (inactive) | 14.9 µM (inactive) | 19.2 µM (inactive) | 12.1 µM (inactive) | 16.6 µM (inactive) | 18.4 µM (inactive) | 16.2 µM (inactive) | 16.8 µM (inactive) | 16.6 µM (inactive) | 15.9 µM (inactive) | 18.7 µM (inactive) | 17.3 µM (inactive) | 18.7 µM (inactive) | 13.1 µM (inactive) | 18.6 µM (inactive) | 18.2 µM (inactive) | 15.6 µM (inactive) | 
